Measured values from patent US20220348658A1, “ANTI-T CELL ANTIGEN-BINDING MOLECULE TO BE USED IN COMBINATION WITH CYTOKINE INHIBITOR” (Chugai Seiyaku Kabushiki Kaisha, priority 2019, published 2022).

Tests used:
[1] = system: patients who manifested CRS after ERY974 administration; assay: ERY101EG study: use of Tocilizumab for the treatment of CRS; format: in vivo, human
Description: In the ERY101EG study, Tocilizumab was used alone or in combination with a steroid and such for the treatment of CRS in some patients at the discretion of the clinical trial investigator (Table 11). The severity of CRS ranged from Grade 1 to Grade 3. Tocilizumab was administered on the same day as the manifestation of CRS, with the exception of two patients, two cases (cohort 10A, 840010006, 840010007). In all of the Tocilizumab-administered cases, CRS recovered four days after the day of Tocilizumab administration.

[2] = Simulation of serum Tocilizumab concentration with population pharmacokinetic models (Frey et al.; Gibiansky et al.); conditions: set from the Frey and Gibiansky models
Description: FIG. 5A is a simulation of changes in serum Tocilizumab concentration when Tocilizumab is administered at 8 mg/kg (intravenous administration: IV) on Day 0, based on the population pharmacokinetic model reported in the article by Frey et al. The vertical axis represents the serum Tocilizumab concentration (μg/mL), and the horizontal axis represents the number of days after administration of Tocilizumab.
FIG. 5B is a simulation of changes in serum Tocilizumab concentration when Tocilizumab is administered at 8 mg/kg (IV) on Day 0, based on the population pharmacokinetic model reported in the article by Gibiansky et al. The vertical axis represents the serum Tocilizumab concentration (μg/mL), and the horizontal axis represents the number of days after administration of Tocilizumab.
FIG. 6A is a simulation of changes in serum Tocilizumab concentration when Tocilizumab is intravenously administered (IV) at 8 mg/kg on Day 0, based on the population pharmacokinetic model reported in the article by Frey et al. The vertical axis represents the serum Tocilizumab concentration (μg/mL), and the horizontal axis represents the number of days after administration of Tocilizumab. […]

IL-6R [3] = target: T1, IL-6R (Homo sapiens, UniProt P08887); assay: Population pharmacokinetic model: Michaelis coefficient (Km) for target-mediated elimination of Tocilizumab; conditions: theoretical, from the Km value of Frey et al.
T1 construct: host or cells: population pharmacokinetic models of patients (Frey et al. 2010; Gibiansky and Frey 2012)
T1 sequence (P08887 20-468): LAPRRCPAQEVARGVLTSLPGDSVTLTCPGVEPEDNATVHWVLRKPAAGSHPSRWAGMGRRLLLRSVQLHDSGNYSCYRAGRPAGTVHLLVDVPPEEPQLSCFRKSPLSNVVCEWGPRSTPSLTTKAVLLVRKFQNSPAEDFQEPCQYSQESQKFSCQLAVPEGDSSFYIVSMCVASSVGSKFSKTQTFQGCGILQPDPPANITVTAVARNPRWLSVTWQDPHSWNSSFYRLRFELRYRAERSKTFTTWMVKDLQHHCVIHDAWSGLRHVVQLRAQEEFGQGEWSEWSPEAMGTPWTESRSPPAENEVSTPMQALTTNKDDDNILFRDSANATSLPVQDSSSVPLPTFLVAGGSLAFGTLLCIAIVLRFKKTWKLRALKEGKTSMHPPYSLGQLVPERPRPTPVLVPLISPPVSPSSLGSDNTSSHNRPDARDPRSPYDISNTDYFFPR

IL-6R [4] = target: T1, IL-6R; conditions: cited from earlier work

## Tocilizumab: humanized immunoglobulin G1 (IgG1) kappa anti-human IL-6R monoclonal antibody
[1]; all Tocilizumab-administered cases, CRS Grade 1 to Grade 3, alone or with a steroid
  Recovery from CRS after the day of Tocilizumab administration: four
[1]; patient 840010006, cohort 10A, CRS Grade 3 after 2nd ERY974 (0.81 μg/kg), Tocilizumab 8 mg/kg, 3 days after CRS manifestation
  Duration from Tocilizumab administration to recovery from CRS: 4 days
[1]; patient 840010006, cohort 10A, CRS Grade 3 after 3rd ERY974 (0.54 μg/kg), Tocilizumab 8 mg/kg, same day as CRS manifestation
  Duration from Tocilizumab administration to recovery from CRS: 3 days
[1]; patient 840010006, cohort 10A, after 2nd ERY974 (0.81 μg/kg), Tocilizumab 8 mg/kg
  Manifestation of CRS after Tocilizumab administration and until the next administration of this agent: None
[1]; patient 840010006, cohort 10A, 1 further ERY974 administration (0.54 μg/kg) after Tocilizumab 8 mg/kg
  Presence or absence of CRS recurrence: Present
[1]; patient 840010007, cohort 10A, CRS Grade 2, Tocilizumab 8 mg/kg, 6 days after CRS manifestation
  Duration from Tocilizumab administration to recovery from CRS: 1 days
[1]; patient 840010007, cohort 10A, 2 further ERY974 administrations (0.54, 0.81 μg/kg) after Tocilizumab 8 mg/kg
  Presence or absence of CRS recurrence: Absent
[1]; patient 840010007, cohort 10A, Tocilizumab 8 mg/kg
  Manifestation of CRS after Tocilizumab administration and until the next administration of this agent: None
[1]; patient 840020017, cohort 8A, CRS Grade 2, Tocilizumab dose not known, same day as CRS manifestation
  Duration from Tocilizumab administration to recovery from CRS: 0 days
[1]; patient 840020017, cohort 8A, 3 further ERY974 administrations (0.36 μg/kg) after Tocilizumab
  Presence or absence of CRS recurrence: Absent
[1]; patient 840020017, cohort 8A, Tocilizumab dose not known
  Manifestation of CRS after Tocilizumab administration and until the next administration of this agent: None
[1]; patient 840020021, cohort 9A, CRS Grade 1, Tocilizumab 4 mg/kg, same day as CRS manifestation
  Duration from Tocilizumab administration to recovery from CRS: 0 days
[1]; patient 840020021, cohort 9A, 9 further ERY974 administrations (0.54 μg/kg) after Tocilizumab 4 mg/kg
  Presence or absence of CRS recurrence: Absent
[1]; patient 840020021, cohort 9A, Tocilizumab 4 mg/kg
  Manifestation of CRS after Tocilizumab administration and until the next administration of this agent: None
[1]; patient 840020022, cohort 9A, CRS Grade 2, Tocilizumab 4 mg/kg, within 2 hours from CRS manifestation
  Duration from Tocilizumab administration to recovery from CRS: 0 days
[1]; patient 840020022, cohort 9A, 3 further ERY974 administrations (0.54 μg/kg) after Tocilizumab 4 mg/kg
  Presence or absence of CRS recurrence: Absent
[1]; patient 840020022, cohort 9A, Tocilizumab 4 mg/kg
  Manifestation of CRS after Tocilizumab administration and until the next administration of this agent: None
[1]; patient 840020023, cohort 9B, CRS Grade 2, Tocilizumab 4 mg/kg, same day as CRS manifestation
  Duration from Tocilizumab administration to recovery from CRS: 0 days
[1]; patient 840020023, cohort 9B, 19 further ERY974 administrations (0.54 μg/kg) after Tocilizumab 4 mg/kg
  Presence or absence of CRS recurrence: Absent
[1]; patient 840020023, cohort 9B, Tocilizumab 4 mg/kg
  Manifestation of CRS after Tocilizumab administration and until the next administration of this agent: None
[1]; patient 840060002, cohort 8B, CRS Grade 2, Tocilizumab 8 mg/kg, same day as CRS manifestation
  Duration from Tocilizumab administration to recovery from CRS: 2 days
[1]; patient 840060002, cohort 8B, 9 further ERY974 administrations (0.36 μg/kg) after Tocilizumab 8 mg/kg
  Presence or absence of CRS recurrence: Absent
[1]; patient 840060002, cohort 8B, Tocilizumab 8 mg/kg
  Manifestation of CRS after Tocilizumab administration and until the next administration of this agent: None
[2]
  Estimated effective serum concentration (target concentration) of Tocilizumab: 10 µg/mL
IL-6R [3]
  Serum concentration of Tocilizumab required for binding to 80% or more of IL-6R: ≥ 10800 ng/mL
IL-6R [4]; article by Frey et al., patients with rheumatoid arthritis
  Michaelis coefficient (Km) for target-mediated elimination: 2.7 µg/mL
IL-6R [4]; article by Gibiansky et al.
  Michaelis coefficient (Km value): 0.367 µg/mL
